In patent publication US9648880B2, “Antifungal agents and uses thereof” (University of Massachusetts, priority 2012, dated 2017):
“And” between values parts separate entries of the source, which are not always exact repeats. Equal entries are not always repeated.

Experiments:
Rtt109-Vps75 = molecular target: T1, Rtt109-Vps75 (Saccharomyces cerevisiae, UniProt Q07794); assay: HAT-ThioGlo1 time course assay, Rtt109-Vps75; format: biochemical, S. cerevisiae; settings: IC50, 50 nM Rtt109-Vps75, 15 μM H3n21 peptide, 30 μM Ac-CoA
T1 construct: 6xHis (on one of the two proteins of the complex); made in house; host or cells: bacteria
T1 sequence (Q07794 1-436): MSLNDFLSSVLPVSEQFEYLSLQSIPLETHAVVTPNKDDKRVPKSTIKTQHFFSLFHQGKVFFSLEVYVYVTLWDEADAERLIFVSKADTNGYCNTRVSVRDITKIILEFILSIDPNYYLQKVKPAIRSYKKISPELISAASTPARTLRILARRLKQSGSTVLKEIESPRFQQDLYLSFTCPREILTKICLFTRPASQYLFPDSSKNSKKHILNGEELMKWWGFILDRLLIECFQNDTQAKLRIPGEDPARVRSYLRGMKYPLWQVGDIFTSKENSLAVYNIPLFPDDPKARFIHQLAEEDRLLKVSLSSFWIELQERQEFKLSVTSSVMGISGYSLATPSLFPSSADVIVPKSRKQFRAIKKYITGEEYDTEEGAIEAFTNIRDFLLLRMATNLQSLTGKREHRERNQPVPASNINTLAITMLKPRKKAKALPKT
T1 sequence (P53853 1-264 partner): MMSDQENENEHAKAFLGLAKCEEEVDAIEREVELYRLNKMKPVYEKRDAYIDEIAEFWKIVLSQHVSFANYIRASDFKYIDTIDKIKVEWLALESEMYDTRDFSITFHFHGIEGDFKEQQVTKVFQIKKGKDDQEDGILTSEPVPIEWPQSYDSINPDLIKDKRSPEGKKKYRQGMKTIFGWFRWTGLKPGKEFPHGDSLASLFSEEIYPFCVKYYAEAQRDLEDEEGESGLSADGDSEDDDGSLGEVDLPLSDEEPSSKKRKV

Gcn5 = molecular target: T2, Gcn5 (Saccharomyces cerevisiae, UniProt Q03330); assay: HAT-ThioGlo1 time course assay, Gcn5; format: biochemical, S. cerevisiae; settings: up to 100 μM
T2 construct: 6xHis (N); made in house; host or cells: BL21 E. coli
T2 sequence (Q03330 whole entry): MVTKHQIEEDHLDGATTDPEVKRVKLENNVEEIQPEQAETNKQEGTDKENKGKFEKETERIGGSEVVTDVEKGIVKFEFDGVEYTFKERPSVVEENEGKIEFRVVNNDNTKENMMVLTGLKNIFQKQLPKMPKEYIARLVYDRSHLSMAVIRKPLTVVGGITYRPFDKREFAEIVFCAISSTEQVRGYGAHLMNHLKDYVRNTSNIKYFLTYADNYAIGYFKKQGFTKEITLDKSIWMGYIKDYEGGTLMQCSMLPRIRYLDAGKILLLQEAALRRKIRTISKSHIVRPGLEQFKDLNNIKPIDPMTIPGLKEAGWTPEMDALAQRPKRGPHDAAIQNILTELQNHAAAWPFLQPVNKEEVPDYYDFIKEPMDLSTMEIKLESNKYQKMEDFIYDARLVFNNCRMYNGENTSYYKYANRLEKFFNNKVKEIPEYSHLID

p300 = molecular target: T3, p300 (Homo sapiens, UniProt Q09472); assay: HAT-ThioGlo1 time course assay, p300; format: biochemical; settings: up to 100 μM
T3 construct: p300 catalytic domain (p300 amino acids 1195-1810; Fan, 2010); 6xHis (N); FLAG (N); made in house; host or cells: BL21 E. coli
T3 sequence (Q09472 1195-1810): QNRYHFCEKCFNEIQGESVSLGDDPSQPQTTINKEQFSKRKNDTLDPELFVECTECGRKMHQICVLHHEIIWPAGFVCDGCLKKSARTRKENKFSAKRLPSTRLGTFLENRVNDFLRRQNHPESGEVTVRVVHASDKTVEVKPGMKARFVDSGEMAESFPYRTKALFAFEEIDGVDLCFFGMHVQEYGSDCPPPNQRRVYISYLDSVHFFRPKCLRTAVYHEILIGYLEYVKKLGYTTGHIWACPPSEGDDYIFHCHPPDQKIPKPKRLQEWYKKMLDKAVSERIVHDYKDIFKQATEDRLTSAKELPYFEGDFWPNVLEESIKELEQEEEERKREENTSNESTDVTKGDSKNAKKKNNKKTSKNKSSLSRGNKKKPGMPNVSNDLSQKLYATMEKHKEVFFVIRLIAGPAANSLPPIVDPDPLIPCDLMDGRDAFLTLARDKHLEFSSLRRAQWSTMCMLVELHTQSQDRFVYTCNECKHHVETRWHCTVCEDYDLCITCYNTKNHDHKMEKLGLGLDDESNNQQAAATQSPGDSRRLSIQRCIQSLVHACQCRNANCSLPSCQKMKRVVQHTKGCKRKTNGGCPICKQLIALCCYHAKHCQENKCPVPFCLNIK

In the case of `CCCC1(c2ccccc2)NC(=O)N(CC(=O)N(C)Cc2c(F)cccc2Cl)C1=O` (stereo not drawn) [KB7, N-[(2-chloro-6-fluorophenyl)methyl]-2-(2,5-dioxo-4-phenyl-4-propylimidazolidin-1-yl)-N-methylacetamide], the IC50 (Rtt109-Vps75) is reported as 55.2 nM and ~56 nM, the “enzyme reaction rate, % activity” value (Gcn5) is reported as at least 80% and the “enzyme reaction rate, % activity” value (p300) is reported as at least 80%.
